Reference: patent US6746663B2, “Porphyrin compounds” (Photochemical Co., Ltd., priority 1999, dated 2004)
Counter-ions that a name gives are not always drawn.

How the values were obtained:
[1] = Photosensitizing oxidation reaction using Dansyl methionine; details: for Degree of Photo Reaction (reaction end time): 0.1 μM photosensitizer, 10 μM Dansyl methionine in chloroform, halogen lamp irradiation, time until Dansyl methionine disappeared on TLC, smaller = stronger
Protocol: (§1) Albumin test is a test method for evaluating the affinity to cancerous tissues, in which a chlorin derivative is examined on the change in ultraviolet (UV) absorption spectrum in a mixture form with albumine, and dancyl methionine test is also a convenient test method for evaluating the strength of the photoreactivity by thin layer chromatography (TLC) or high performance liquid chromatography (HPLC) (see Japanese Patent Application Laid-open No. 5-97857).
To 1 ml of chloroform, 10 μM of Dansyl methionine, a substrate, was added, and then 0.1 μM of the photosensitizer of the present invention [sodium salt of NOEt-P-Asp(I)] was further added. Laser irradiation was conducted using Cold Spot PICL-SX (Nippon P.I. Co., Ltd.) which is halogen lamp, has 150 W wave length and 80,00 Lux, under stirring. The reaction solution was spotted at every minute on TLC plate (Kieselgel 60F254), and developed with chloroform methanol (3:2), then Dansyl methionine and its oxide (Dansylmethionine sulfoxide) were confirmed using UV lamp (254 nm). The time that Dansylmethionine disappeared completely on TLC plate was stated as the end of the reaction time, and photo oxidation reaction of photosensitizer was compared.
Photofrin II (Trade Mark) was used as a control of photosensitizer of present invention.

[2] = system: tumor tissues of colon cancer Colon 26; assay: Evaluation on tissue accumulability (cancer/organ concentration by surface fluorescence); format: in vivo; details: 10 mg/kg intravenous, 3H/He mice bearing Colon 26, 1 to 24 hours after administration, FIG. 2
Protocol: In the graph, the curve No.1 represents the result of cancer/brain, the curve No.2 represents the result of cancer/liver, the curve No.3 represents the result of cancer/lung, the curve No.4 represents cancer/muscle, the curve No.5 represents cancer/kidney, and the curve No.6 represents cancer/plasma.
3H/He mice (5 per group) implanted with tumor tissues of colon cancer Colon 26 for 14 to 21 days, were given an intravenous injection of sodium salt of each of NOEt-P-Asp(I) (10 mg/kg for each mouse) which had been diluted with a distilled water for injection. The blood samples were collected and the organs bearing the tumor tissue were extirpated after the injection, irradiated with N2-pulsed laser (N2, wavelength: 337 nm, 2 ns, 400-1,000 nm), and the excited fluorescent spectrum was measured. The wavelength in the range of 600 to 900 nm was examined based on the peak wavelength of NADH at 470 nm (determination of the distribution of the test compound in the organ by the surface fluorescence method using N2-pulsed laser spectrophotometry). That is, the distributed concentration of sodium salt of NOEt-P-Asp(I) in cancer/organ (or plasma) ratio was determined by calculating the peak wavelength at 670 nm when the peak wavelength at 470 nm was considered as the basic value, 1.

albumin = albumin (Homo sapiens, UniProt P02768); assay: Albumin test (change in UV absorption spectrum in mixture with albumin); format: binding
Description: as §1

albumin, sequence (P02768 25-609, species assumed): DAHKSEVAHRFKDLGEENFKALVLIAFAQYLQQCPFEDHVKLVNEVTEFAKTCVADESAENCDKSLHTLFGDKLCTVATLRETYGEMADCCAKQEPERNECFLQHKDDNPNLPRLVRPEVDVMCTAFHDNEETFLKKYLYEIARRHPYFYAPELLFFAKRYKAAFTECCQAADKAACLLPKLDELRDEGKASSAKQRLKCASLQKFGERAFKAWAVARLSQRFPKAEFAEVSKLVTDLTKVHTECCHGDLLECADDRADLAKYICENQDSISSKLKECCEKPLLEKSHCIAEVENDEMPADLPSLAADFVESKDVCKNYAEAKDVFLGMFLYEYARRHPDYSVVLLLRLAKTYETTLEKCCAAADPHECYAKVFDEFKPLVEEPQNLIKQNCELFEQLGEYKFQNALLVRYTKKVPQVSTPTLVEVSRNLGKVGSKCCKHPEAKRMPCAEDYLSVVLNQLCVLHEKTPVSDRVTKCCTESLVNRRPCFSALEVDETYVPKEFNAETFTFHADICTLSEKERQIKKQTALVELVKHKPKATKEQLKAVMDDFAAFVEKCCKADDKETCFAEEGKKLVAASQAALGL

## 13,17-bis[(1,2-dicarboxyethyl)carbamoylethyl]-8-ethenyl-2-hydroxy-3-etoxyiminoethylidene-2,17,12,18-tetramethyl-porphyrin [NOEt-P-Asp(II) Na salt]
[1]
  Degree of Photo Reaction (reaction end time): 4 min

## C=Cc1c(C)c2cc3nc(cc4[nH]c(cc5nc(cc1[nH]2)C(C)(O)C5=CC=NOCC)c(C)c4CCC(=O)NC(CC(=O)O)C(=O)O)C(CCC(=O)NC(CC(=O)O)C(=O)O)=C3C (centres unmarked) [NOEt-P-Asp(I) Na salt, 13,17-bis[(1,2-dicarboxylethyl)carbamoylethyl]-3-ethenyl-7-hydroxy-8-ethoxyiminoethylidene-2,7,12,18-tetramethyl-porphyrin]
[1]
  Degree of Photo Reaction (reaction end time): 4 min
[2]
  accumulability to cancerous tissues (cancer/organ or plasma concentration ratio): much higher accumulability to cancerous tissues

## C=Cc1c(C)c2cc3nc(cc4[nH]c(cc5nc(cc1[nH]2)C(C)(O)C5=CC=NOCC)c(C)c4CCC(=O)NC(CC(=O)O)C(=O)O)C(CCC(=O)NC(CC(=O)O)C(=O)O)=C3C (centres unmarked) [NOEt-P-Asp(I), 13,17-bis[(1,2-dicarboxylethyl)carbamoylethyl]-3-ethenyl-7-hydroxy-8-ethoxyiminoethylidene-2,7,12,18-tetramethyl-porphyrin]
[1]; dancyl methionine test, result in words
  photosensitivity (strength of photoreactivity): strong photosensitivity
albumin
  transferability to cancerous tissues (affinity to cancerous tissues): excellent transferability to cancerous tissues
